Measurements reported in US7947728B1, “Indole and indazole analogs as glycogen synthase activators” (Hoffmann-La Roche Inc., priority 2009, dated 2011).

System: glycogen synthase
Assay: Glycogen Synthase (GS) Assay
Assay type: biochemical
Conditions: for EC50: compound concentration needed to give 50% maximum activation; for GS SC200: compound concentration needed to stimulate 200% of the enzyme activity
Description: The following tests were carried out in order to determine the activity of the compounds of formula (I).
Twelve μL per well of substrate solution containing glycogen (4.32 mg/′ml), 2.67 mM UDP-glucose, 21.6 mM phospho(enol)pyruvate and 2.7 mM NADH in 30 mM glycylglycine, pH 7.3 buffer was added into a polystyrene 384-well assay plate (BD Biosciences).
Compound solutions (8 μL/well) at various concentrations (0-300 μM) were added to the assay plate (columns 5-24). Compound solution contains 30 mM glycylglycine, pH 7.3, 40 mM KCl, 20 mM MgCl2, 9.2% DMSO, with (columns 15-24) or without (columns 5-14) 20 mM glucose 6-phosphate.
Enzyme solution (12 μL/well) containing glycogen synthase (16.88 μg/ml), pyruvate kinase (0.27 mg/ml), lactate dehydrogenase (0.27 mg/ml) in 50 mM Tris-HCl, pH 8.0, 27 mM DTT and bovine serum albumin (BSA, 0.2 mg/ml) was added to the assay plate (columns 3-24). As a blank control, enzyme solution without glycogen synthase was added into the top half wells of columns 1-2. To the bottom half wells of columns 1-2 were added a known activator, glucose 6-phosphate (at final concentration 5 mM) in addition to the enzyme solution. The reaction mixture was incubated at room temperature. The assay plate was then read for absorbance at 340 nm on an Envision reader every 3 minutes up to a total of 15 minutes.
The enzyme activity (with or without compound) was calculated by the reaction rate and represented by the optical density change (δOD) per minute. Percent stimulation of glycogen synthase activity by a compound at various concentrations was calculated by the following formula: % stimulation=100*Rs/Rt,
wherein Rs is the reaction rate of the enzyme in the presence of compound and Rt is the reaction rate of the enzyme in the absence of compound.
SC200 is defined as the compound concentration that is needed to stimulate 200% of the enzyme activity. EC50 is defined as the compound concentration that is needed to give 50% maximum activation.

SMILES | EC50 | GS SC200
COc1cc(F)c(F)cc1-c1ccc(OCc2ccc3ccn(CCC(=O)O)c3c2)cc1 [Example 7, 3-[6-(4′,5′-Difluoro-2′-methoxy-biphenyl-4-yloxymethyl)-indol-1-yl]-propionic Acid] | 3 µM | 0.6 µM
COc1cc(F)c(F)cc1-c1ccc(OCc2cccc3[nH]ncc23)cc1 [Example 1, 4-(4′,5′-Difluoro-2′-methoxy-biphenyl-4-yloxymethyl)-1H-indazole] | 6.56 µM | 4.57 µM
COc1cc(F)c(F)cc1-c1ccc(OCc2cccc3c2ccn3C(C)CC(=O)O)cc1 (stereo not shown) [Example 15, 3-[4-(4′,5′-Difluoro-2′-methoxy-biphenyl-4-yloxymethyl)-indol-1-yl]-butyric acid] | 6.67 µM | 2.29 µM
COc1cc(F)c(F)cc1-c1ccc(OCc2ccc3cn[nH]c3c2)cc1 [Example 3, 6-(4′,5′-Difluoro-2′-methoxy-biphenyl-4-yloxymethyl)-1H-indazole] | 6 µM | 3.92 µM
COc1cc(F)c(F)cc1-c1ccc(OCc2cccc3c2ccn3CCC(=O)O)cc1 [Example 14, 3-[4-(4′,5′-Difluoro-2′-methoxy-biphenyl-4-yloxymethyl)-indol-1-yl]-propionic acid] | 5.49 µM | 1.46 µM
COc1cc(F)c(F)cc1-c1ccc(OCc2ccc3cnn(CCC(=O)O)c3c2)cc1 [Example 5, 3-[6-(4′,5′-Difluoro-2′-methoxy-biphenyl-4-yloxymethyl)-indazol-1-yl]-propionic acid] | 1.43 µM | 0.28 µM
COc1cc(F)c(F)cc1-c1ccc(OCc2ccc3cc[nH]c3c2)cc1 [Example 6, 6-(4′,5′-difluoro-2′-methoxy-biphenyl-4-yloxymethyl)-1H-indole] | 5.37 µM | 5.3 µM
COc1cc(F)c(F)cc1-c1ccc(OCc2ccc3cnn(CC(=O)O)c3c2)cc1 [Example 4, [6-(4′,5′-Difluoro-2′-methoxy-biphenyl-4-yloxymethyl)-indazol-1-yl]-acetic acid] | 7 µM | 2.56 µM
COc1cc(F)c(F)cc1-c1ccc(OCc2cccc3c2ccn3C(=O)CCC(=O)O)cc1 [Example 11, 4-[4-(4′,5′-Difluoro-2′-methoxy-biphenyl-4-yloxymethyl)-indol-1-yl]-4-oxo-butyric acid] | 2.46 µM | 0.44 µM
COc1cc(F)c(F)cc1-c1ccc(OCc2cccc3c2cnn3CCC(=O)O)cc1 [Example 2, 3-[4-(4′,5′-Difluoro-2′-methoxy-biphenyl-4-yloxymethyl)-indazol-1-yl]-propionic acid] | 26 µM | 5.52 µM

More lines, main results first:

EC50 | SMILES | GS SC200
3.88 µM | COc1cc(F)c(F)cc1-c1ccc(OCc2cccc3[nH]ccc23)cc1 [Example 10, 4-(4′,5′-Difluoro-2′-methoxy-biphenyl-4-yloxymethyl)-1H-indole] | 2.86 µM
2.79 µM | COc1cc(F)c(F)cc1-c1ccc(OCc2ccc3[nH]nc(N)c3c2)cc1 [Example 16, 5-(4′,5′-Difluoro-2′-methoxy-biphenyl-4-yloxymethyl)-1H-indazol-3-ylamine] | 0.6 µM
3.12 µM | COc1cc(F)c(F)cc1-c1ccc(OCc2cccc3c2ccn3CC(=O)O)cc1 [Example 13, [4-(4′,5′-Difluoro-2′-methoxy-biphenyl-4-yloxymethyl)-indol-1-yl]-acetic acid] | 0.43 µM
5.16 µM | COc1cc(F)c(F)cc1-c1ccc(OCc2ccc3ccn(CC(=O)O)c3c2)cc1 [Example 8, [6-(4′,5′-Difluoro-2′-methoxy-biphenyl-4-yloxymethyl)-indol-1-yl]-Acetic Acid] | 2 µM
2.01 µM | COc1cc(F)c(F)cc1-c1ccc(OCc2ccc3ccn(C(C)CC(=O)O)c3c2)cc1 (stereo not shown) [Example 9, 3-[6-(4′,5′-Difluoro-2′-methoxy-biphenyl-4-yloxymethyl)-indol-1-yl]-butyric Acid] | 0.41 µM
3.04 µM | COc1cc(F)c(F)cc1-c1ccc(OCc2cccc3c2ccn3C(=O)CC(C)(C)C(=O)O)cc1 [Example 12, 4-[4-(4′,5′-Difluoro-2′-methoxy-biphenyl-4-yloxymethyl)-indol-1-yl]-2,2-dimethyl-4-oxo-butyric acid] | 1.19 µM
18.5 µM | Cn1nc(N)c2cc(COc3ccc(-c4cc(F)c(F)cc4F)cc3)ccc21 [Example 17, Methyl-5-(2′,4′,5′-trifluoro-biphenyl-4-yloxymethyl)-1H-indazol-3-ylamine] | 3.9 µM
